Test results: ChEMBL document CHEMBL5726187, “Pyrimido-pyridazinone compounds and methods of use thereof” (2019)

Columns and labels:
[1] = biological target: Tyrosine-protein kinase SYK (Homo sapiens, UniProt P43405); test: Inhibition of Enzymatic Syk Kinase Activity: 2.5 μL of 10% DMSO or compound in 10% DMSO was added to the wells in a 96 well V-bottom plate. Optimized concentration of in-house Syk enzyme (different batches of Syk (356-635) kinase domain) were used at optimized concentrations) ranging from 0.035 ng to 7.5 ng/reaction diluted in assay buffer was added to a total volume of 12.5 μL). Compound and protein were incubated for 30 minutes at room temperature on a plate shaker. Ten μL of a substrate mix containing 100 μM ATP (0.25 μL), γ-P32-ATP (0.1 μL; 10 μCi/μL), pG4T (0.25 μL; 10 mg/mL) and 1× assay buffer (9.4 μL) was added to all the wells. Samples were incubated at 30° C. for 10 minutes after mixing. The reaction was stopped by the addition of 8N HCl (13 μL) containing 100 mM ATP. Thirty μL of sample was transferred to the center of a 2×2 cm2 Whatman P81 chromatography paper. After allowing the sample to dry for one minute, the assay squares were washed 3 times for 5 minutes each in ortho-phosphoric acid (0.5%) and once in acetone. Assay squares were dried for 15 minutes in a 30° C. oven and transferred to 96 well optiplate. Microscint-O reagent (100 μL, Perkin Elmer) was added to each well, the plate was sealed with Topseal-A microplates and incubated for 10 minutes at room temperature at very low speed on rocker and the plate was read in the Topcount NXL instrument.
[2] = biological target: Tyrosine-protein kinase JAK2 (Homo sapiens, UniProt O60674); test: Inhibition of Enzymatic JAK2 Kinase Activity: Two μL of 10% DMSO in blank, substrate control and positive control wells and 2 μL of test compound in test wells was added. Thirteen μL of assay buffer in blank and substrate control wells and 13 μL of Enzyme buffer mix in positive and test wells was added. The reaction mixture was incubated for 30 minutes at RT on a plate shaker. Ultra Light-pGT substrate (5 μL) [poly Glu-Tyr (4:1) labeled with U Light TM dye, a tyrosine kinase substrate] and ATP mix was added to all wells. The reaction plate was incubated for 60 minutes at RT on a plate shaker. The reaction was stopped by adding 40 mM EDTA (10 μL) in buffer. Ten μL of antibody was added to all the wells.
Sequence of Tyrosine-protein kinase JAK2 (O60674 whole entry): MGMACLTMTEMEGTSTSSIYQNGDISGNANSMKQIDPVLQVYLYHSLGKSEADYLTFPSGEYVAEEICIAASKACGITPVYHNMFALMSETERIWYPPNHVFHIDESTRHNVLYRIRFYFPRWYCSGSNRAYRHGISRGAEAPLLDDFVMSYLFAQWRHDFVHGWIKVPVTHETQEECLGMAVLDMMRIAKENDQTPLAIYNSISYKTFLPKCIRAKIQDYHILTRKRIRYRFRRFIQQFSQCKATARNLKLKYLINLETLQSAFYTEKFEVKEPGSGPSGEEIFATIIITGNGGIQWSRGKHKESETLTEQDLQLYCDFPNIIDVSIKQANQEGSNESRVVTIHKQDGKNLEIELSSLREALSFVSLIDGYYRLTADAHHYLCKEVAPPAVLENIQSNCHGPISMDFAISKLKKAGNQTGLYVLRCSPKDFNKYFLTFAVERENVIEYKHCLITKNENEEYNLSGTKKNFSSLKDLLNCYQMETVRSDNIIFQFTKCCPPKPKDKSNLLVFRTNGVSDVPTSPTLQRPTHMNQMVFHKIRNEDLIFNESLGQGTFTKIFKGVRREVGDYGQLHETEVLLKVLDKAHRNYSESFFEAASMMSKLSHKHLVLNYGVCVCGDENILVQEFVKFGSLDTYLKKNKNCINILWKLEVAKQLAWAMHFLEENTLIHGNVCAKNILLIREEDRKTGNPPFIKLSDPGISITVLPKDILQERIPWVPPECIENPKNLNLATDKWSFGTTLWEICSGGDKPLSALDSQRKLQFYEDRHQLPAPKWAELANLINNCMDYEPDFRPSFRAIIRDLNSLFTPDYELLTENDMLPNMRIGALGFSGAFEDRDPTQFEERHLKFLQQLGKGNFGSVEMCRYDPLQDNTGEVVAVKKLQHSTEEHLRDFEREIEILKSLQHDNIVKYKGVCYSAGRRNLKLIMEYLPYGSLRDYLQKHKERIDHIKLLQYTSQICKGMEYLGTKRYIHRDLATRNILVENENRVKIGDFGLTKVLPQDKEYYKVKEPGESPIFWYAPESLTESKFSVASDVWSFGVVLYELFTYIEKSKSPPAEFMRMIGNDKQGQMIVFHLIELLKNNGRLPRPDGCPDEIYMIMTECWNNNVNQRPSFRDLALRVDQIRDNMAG

SMILES: O=c1[nH]ncc2nc(N3CCCCCC3)nc(Nc3ccc(OCCN4CCCNCC4)cc3)c12
- IC50 [1]: < 0.05 µM
- IC50 [2]: < 0.01 µM

SMILES: COc1cc(Nc2nc(N3CCCCCC3)nc3cn[nH]c(=O)c23)cc(OC)c1
- IC50 [1]: > 0.1 µM

SMILES: O=C(O)C1CC12CCC(c1ccc(Nc3nc(N4CCCCC4)nc4cn[nH]c(=O)c34)cc1)CC2 (stereo unspecified)
- IC50 [1]: < 0.05 µM
- IC50 [2]: < 0.05 µM

SMILES: CC1CC(C)CN(c2nc(Nc3ccc(N4CCC(CC(=O)O)CC4)cc3)c3c(=O)[nH]ncc3n2)C1 (stereo unspecified)
- IC50 [1]: < 0.05 µM
- IC50 [2]: < 0.01 µM

SMILES: O=C(O)C1CC12CCN(c1ccc(Nc3nc(-c4ccc(F)cc4)nc4cn[nH]c(=O)c34)cc1)CC2 (stereo unspecified)
- IC50 [1]: < 0.1 µM
- IC50 [2]: < 0.05 µM

SMILES: CC(C)(CO)Oc1ccc(Nc2nc(N3CCC(CC#N)CC3)nc3cn[nH]c(=O)c23)cc1
- IC50 [1]: < 0.05 µM
- IC50 [2]: < 0.05 µM

SMILES: CC(C)(O)C(=O)N1CCN(c2ccc(Nc3nc(N4CCC(CC#N)CC4)nc4cn[nH]c(=O)c34)cn2)CC1
- IC50 [1]: < 0.05 µM
- IC50 [2]: < 0.05 µM

SMILES: N#CCC1CCN(c2nc(Nc3ccc(N4CCC(F)(F)CC4)cc3)c3c(=O)[nH]ncc3n2)CC1
- IC50 [1]: < 0.05 µM
- IC50 [2]: < 0.01 µM

SMILES: CC(C)(C(N)=O)N1CCN(c2ccc(Nc3nc(N4CCCCCC4)nc4cn[nH]c(=O)c34)cc2)CC1
- IC50 [1]: < 0.05 µM
- IC50 [2]: < 0.01 µM

SMILES: O=c1[nH]ncc2nc(N3CCCCCC3)nc(Nc3ccc(OCCN4CCNCC4)cc3)c12
- IC50 [1]: < 0.05 µM

SMILES: O=C(O)C1CC12CCC(c1ccc(Nc3nc(NC4CCCCC4)nc4cn[nH]c(=O)c34)cc1)CC2 (stereo unspecified)
- IC50 [1]: < 0.05 µM
- IC50 [2]: < 0.05 µM

SMILES: COc1ccc(-c2nc(Nc3ccc(N4CCC5(CC4)CC5C(=O)O)cc3)c3c(=O)[nH]ncc3n2)cc1 (stereo unspecified)
- IC50 [1]: < 0.1 µM
- IC50 [2]: < 0.1 µM

SMILES: N#CCC1CCN(c2nc(Nc3ccc(N4CCCC(O)C4)nc3)c3c(=O)[nH]ncc3n2)CC1 (stereo unspecified)
- IC50 [1]: < 0.05 µM
- IC50 [2]: < 0.05 µM

SMILES: O=C(O)CN1CCN(c2ccc(Nc3nc(N4CCCCCC4)nc4cn[nH]c(=O)c34)cc2)CC1
- IC50 [1]: < 0.01 µM
- IC50 [2]: < 0.01 µM

SMILES: N#CCC1CCN(c2nc(Nc3ccc(F)cc3)c3c(=O)[nH]ncc3n2)CC1
- IC50 [1]: > 0.1 µM

SMILES: O=C1CC2(CCN(c3nc(Nc4ccc(CN5CCNCC5)cc4)c4c(=O)[nH]ncc4n3)CC2)CC(=O)N1
- IC50 [1]: > 0.1 µM

SMILES: CN(c1nc(Nc2ccc(N3CCC4(CC3)CC4C(=O)O)cc2)c2c(=O)[nH]ncc2n1)C1CCCCC1 (stereo unspecified)
- IC50 [1]: < 0.05 µM
- IC50 [2]: < 0.01 µM

SMILES: CC(C)(C#N)N1CCN(CCOc2ccc(Nc3nc(N4CCCCCC4)nc4cn[nH]c(=O)c34)cc2)CC1
- IC50 [1]: < 0.05 µM
- IC50 [2]: < 0.05 µM

SMILES: CC(C)(Oc1ccc(Nc2nc(N3CCCCCC3)nc3cn[nH]c(=O)c23)cc1)C(=O)O
- IC50 [1]: < 0.05 µM
- IC50 [2]: < 0.01 µM

SMILES: O=c1[nH]ncc2nc(N3CCCCC3)nc(Nc3ccc(OCCN4CCCNCC4)cc3)c12
- IC50 [1]: < 0.05 µM
- IC50 [2]: < 0.05 µM
